Drawing on ChEMBL document CHEMBL5715958 (Mol Cancer Res, 2018), this text covers inhibition, IC50 and Activity for five compounds.

One may read the IC50 as the concentration at which inhibition is half-maximal.

Active and inactive are the calls of the source. The rule behind the calls is not given here.

Assay [1] concerns the target Tyrosine-protein kinase Lyn (Homo sapiens) (UniProt P07948). As to the kind of experiment: Inhibition of MIB binding to LYN in human NCI-H2228 cells at 0.01 to 10 uM incubated for 1 hr by MIB/MS competitive binding analysis. The class given is cell-based. The following applies: dose 0.01-10 µM.
Assay [2] addresses Tyrosine-protein kinase Yes (Homo sapiens) (UniProt P07947). The experiment in a line: Inhibition of MIB binding to YES1 in human NCI-H2228 cells at 0.01 to 10 uM incubated for 1 hr by MIB/MS competitive binding analysis. The class given is cell-based. The following applies: dose 0.01-10 µM.
The target in assay [3] is Calcium/calmodulin-dependent protein kinase type II subunit delta (Homo sapiens, UniProt Q13557). As to the kind of experiment: Inhibition of human CAMK2delta preincubated with compound for 20 mins followed by [33P]ATP addition and measured after 2 hrs by filter binding method.
Chain of Calcium/calmodulin-dependent protein kinase type II subunit delta (Q13557 whole entry): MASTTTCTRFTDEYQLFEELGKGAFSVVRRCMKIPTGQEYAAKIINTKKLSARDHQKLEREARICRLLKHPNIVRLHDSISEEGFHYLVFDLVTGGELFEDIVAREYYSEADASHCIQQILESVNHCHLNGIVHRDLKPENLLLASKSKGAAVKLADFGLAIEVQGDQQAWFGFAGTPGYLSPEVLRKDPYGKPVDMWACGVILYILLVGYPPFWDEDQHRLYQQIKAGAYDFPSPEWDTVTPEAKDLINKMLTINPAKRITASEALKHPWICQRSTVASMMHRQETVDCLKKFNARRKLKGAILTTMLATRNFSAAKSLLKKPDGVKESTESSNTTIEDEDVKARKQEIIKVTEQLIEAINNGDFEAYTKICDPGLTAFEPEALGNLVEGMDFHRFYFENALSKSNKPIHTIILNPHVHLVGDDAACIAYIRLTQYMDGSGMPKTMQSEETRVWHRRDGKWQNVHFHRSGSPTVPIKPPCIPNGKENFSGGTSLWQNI
Assay [4] deals with Calcium/calmodulin-dependent protein kinase type II subunit gamma (Homo sapiens, UniProt Q13555). As to the kind of experiment: Inhibition of human CAMK2gamma preincubated with compound for 20 mins followed by [33P]ATP addition and measured after 2 hrs by filter binding method.
Chain of Calcium/calmodulin-dependent protein kinase type II subunit gamma (Q13555 whole entry): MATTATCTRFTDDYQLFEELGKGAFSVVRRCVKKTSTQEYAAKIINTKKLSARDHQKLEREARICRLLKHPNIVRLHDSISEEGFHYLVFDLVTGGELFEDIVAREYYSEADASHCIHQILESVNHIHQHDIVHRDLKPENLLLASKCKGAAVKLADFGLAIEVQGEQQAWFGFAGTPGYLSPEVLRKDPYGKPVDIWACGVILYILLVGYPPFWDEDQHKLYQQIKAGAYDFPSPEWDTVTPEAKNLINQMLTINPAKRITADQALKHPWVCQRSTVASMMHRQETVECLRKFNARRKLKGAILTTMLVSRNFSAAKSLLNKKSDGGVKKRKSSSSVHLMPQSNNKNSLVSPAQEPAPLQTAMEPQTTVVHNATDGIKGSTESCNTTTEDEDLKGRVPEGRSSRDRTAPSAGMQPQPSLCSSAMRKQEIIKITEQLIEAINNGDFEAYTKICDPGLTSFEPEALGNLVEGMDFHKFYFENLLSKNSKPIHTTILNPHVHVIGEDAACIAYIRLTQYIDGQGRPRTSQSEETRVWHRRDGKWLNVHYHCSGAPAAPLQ
Assay [5] has as its target Calcium/calmodulin-dependent protein kinase type II subunit beta (Homo sapiens, UniProt Q13554). The experiment in a line: Inhibition of human CAMK2beta preincubated with compound for 20 mins followed by [33P]ATP addition and measured after 2 hrs by filter binding method.
In another assay the test system is L-M(TK-). The experiment in a line: Effect on beta-catenin protein level in mouse L-M(TK-) cells at 5 uM incubated for 6 hrs by Western blotting analysis. The class given is functional, cell-based.
A further assay deals with RKO. As to the kind of experiment: Effect on beta-catenin protein level in human RKO cells at 5 uM incubated for 6 hrs by Western blotting analysis. The class given is functional, cell-based. (In general: In western blotting, separated proteins are transferred to a membrane and probed.)
For assay [6], the target named is Cyclin-dependent kinase 4 (Homo sapiens) (UniProt P11802). The experiment in a line: Inhibition of MIB binding to CDK4 in human NCI-H2228 cells at 0.01 to 10 uM incubated for 1 hr by Western blotting analysis. As to conditions: dose 0.01-10 µM. The class given is cell-based.
Chain of Cyclin-dependent kinase 4 (Homo sapiens) (P11802 whole entry): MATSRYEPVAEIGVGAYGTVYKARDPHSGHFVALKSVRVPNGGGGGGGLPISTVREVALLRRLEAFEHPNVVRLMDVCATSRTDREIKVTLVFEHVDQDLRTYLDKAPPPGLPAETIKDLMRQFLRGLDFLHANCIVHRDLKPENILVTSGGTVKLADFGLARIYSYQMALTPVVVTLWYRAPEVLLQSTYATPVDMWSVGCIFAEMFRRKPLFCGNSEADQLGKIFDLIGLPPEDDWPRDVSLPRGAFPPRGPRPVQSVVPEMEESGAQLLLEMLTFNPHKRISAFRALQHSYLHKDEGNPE
Assay [7] deals with Glycogen synthase kinase-3 beta (Homo sapiens) (UniProt P49841). As to the kind of experiment: Inhibition of MIB binding to GSK3beta in human NCI-H2228 cells at 0.01 to 10 uM incubated for 1 hr by Western blotting analysis. The class given is cell-based. The following applies: dose 0.01-10 µM.
Assay [8] concerns the target Dual specificity mitogen-activated protein kinase kinase 1 (Homo sapiens) (UniProt Q02750). The experiment in a line: Inhibition of MIB binding to MEK1 in human NCI-H2228 cell lysate at 3 to 3000 uM pre-incubated with MIB followed by compound addition measured after 1 hr by Western blotting analysis. The class given is subcellular. The following applies: dose 3-3000 µM.

Assay [9] has as its target Dual specificity mitogen-activated protein kinase kinase 2 (Homo sapiens) (UniProt P36507). The experiment in a line: Inhibition of MIB binding to MEK2 in human NCI-H2228 cells at 3 to 3000 uM incubated for 1 hr by Western blotting analysis. The class given is cell-based. The following applies: dose 3-3000 µM.
In assay [10] the target is Dual specificity mitogen-activated protein kinase kinase 1 (Homo sapiens) (UniProt Q02750). The experiment in a line: Inhibition of MIB binding to MEK1 in human NCI-H2228 cell lysate at high dose incubated for 1 hr by Western blotting analysis. The class given is subcellular.
Chain of Dual specificity mitogen-activated protein kinase kinase 1 (Homo sapiens) (Q02750 whole entry): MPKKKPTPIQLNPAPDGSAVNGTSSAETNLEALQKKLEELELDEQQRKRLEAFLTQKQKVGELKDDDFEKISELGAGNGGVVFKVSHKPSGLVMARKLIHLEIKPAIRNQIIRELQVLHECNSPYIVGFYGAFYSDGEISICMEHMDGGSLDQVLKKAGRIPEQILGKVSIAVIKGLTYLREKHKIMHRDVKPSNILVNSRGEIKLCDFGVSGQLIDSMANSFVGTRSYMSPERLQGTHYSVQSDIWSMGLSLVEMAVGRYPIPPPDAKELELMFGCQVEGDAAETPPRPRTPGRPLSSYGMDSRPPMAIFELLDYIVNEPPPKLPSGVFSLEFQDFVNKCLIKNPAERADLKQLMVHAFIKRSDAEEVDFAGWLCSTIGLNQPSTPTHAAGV
Assay [11] relates to Mus musculus. The experiment in a line: Inhibition of MIB binding to MEK1 in mouse kidney at 3 mg/kg, po measured after 2 hr by MIB/MS competitive binding analysis. The class given is functional, organism-based.
For assay [12], the target named is Tyrosine-protein kinase receptor UFO (Homo sapiens) (UniProt P30530). As to the kind of experiment: Inhibition of MIB binding to AXL in human NCI-H2228 cell lysate at 3 to 3000 uM pre-incubated with MIB followed by compound addition measured after 1 hr by Western blotting analysis. The class given is subcellular. As to conditions: dose 3-3000 µM.
Chain of Tyrosine-protein kinase receptor UFO (Homo sapiens) (P30530 whole entry): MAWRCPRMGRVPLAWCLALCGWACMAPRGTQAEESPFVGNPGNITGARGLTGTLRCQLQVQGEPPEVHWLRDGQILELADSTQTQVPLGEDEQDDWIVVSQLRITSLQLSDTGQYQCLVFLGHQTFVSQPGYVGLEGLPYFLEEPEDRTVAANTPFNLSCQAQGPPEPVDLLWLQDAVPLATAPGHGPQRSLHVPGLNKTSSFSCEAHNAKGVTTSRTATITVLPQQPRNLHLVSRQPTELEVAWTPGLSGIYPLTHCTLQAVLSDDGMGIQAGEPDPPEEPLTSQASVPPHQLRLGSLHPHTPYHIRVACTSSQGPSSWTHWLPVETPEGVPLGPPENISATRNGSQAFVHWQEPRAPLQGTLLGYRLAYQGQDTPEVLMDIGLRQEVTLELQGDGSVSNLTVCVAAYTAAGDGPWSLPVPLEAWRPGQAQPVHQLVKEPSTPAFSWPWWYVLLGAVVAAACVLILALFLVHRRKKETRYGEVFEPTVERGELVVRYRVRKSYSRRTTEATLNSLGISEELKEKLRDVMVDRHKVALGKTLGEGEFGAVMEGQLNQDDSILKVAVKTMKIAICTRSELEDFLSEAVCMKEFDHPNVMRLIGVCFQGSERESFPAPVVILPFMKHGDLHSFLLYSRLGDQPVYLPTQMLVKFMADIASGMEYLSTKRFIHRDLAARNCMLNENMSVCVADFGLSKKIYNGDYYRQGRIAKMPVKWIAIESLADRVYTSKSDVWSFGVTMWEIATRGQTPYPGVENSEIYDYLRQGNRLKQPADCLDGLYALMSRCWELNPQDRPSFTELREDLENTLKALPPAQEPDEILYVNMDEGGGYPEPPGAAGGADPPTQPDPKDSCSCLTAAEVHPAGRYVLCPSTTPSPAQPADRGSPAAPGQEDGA
Assay [13] shares this target. The experiment in a line: Inhibition of MIB binding to AXL in human NCI-H2228 cell lysate at high dose incubated for 1 hr by Western blotting analysis. The class given is subcellular. As to conditions: dose 3-3000 µM.
Assay [14] has the same target. As to the kind of experiment: Inhibition of MIB binding to AXL in human NCI-H2228 cells at 3 to 3000 uM incubated for 1 hr by Western blotting analysis. The class given is cell-based. As to conditions: dose 3-3000 µM.
Assay [15] concerns the target Dual specificity mitogen-activated protein kinase kinase 2 (Homo sapiens) (UniProt P36507). The experiment in a line: Inhibition of MIB binding to MEK2 in human NCI-H2228 cell lysate at 3 to 3000 uM pre-incubated with MIB followed by compound addition measured after 1 hr by Western blotting analysis. The class given is subcellular. As to conditions: dose 3-3000 µM.

Assay [16] concerns Mus musculus. As to the kind of experiment: Inhibition of MIB binding to MEK2 in mouse kidney at 3 mg/kg, po measured after 2 hr by MIB/MS competitive binding analysis. The class given is functional, organism-based.
Assay [17] has as its target Dual specificity mitogen-activated protein kinase kinase 1 (Homo sapiens) (UniProt Q02750). The experiment in a line: Inhibition of MIB binding to MEK1 in human NCI-H2228 cells at 3 to 3000 uM incubated for 1 hr by Western blotting analysis. The class given is cell-based. As to conditions: dose 3-3000 µM.
Assay [18] has as its target Dual specificity mitogen-activated protein kinase kinase 2 (Homo sapiens) (UniProt P36507). The experiment in a line: Inhibition of MIB binding to MEK2 in human NCI-H2228 cell lysate at high dose incubated for 1 hr by Western blotting analysis. The class given is subcellular. As to conditions: dose 3-3000 µM.

Chain of Dual specificity mitogen-activated protein kinase kinase 2 (Homo sapiens) (P36507 whole entry): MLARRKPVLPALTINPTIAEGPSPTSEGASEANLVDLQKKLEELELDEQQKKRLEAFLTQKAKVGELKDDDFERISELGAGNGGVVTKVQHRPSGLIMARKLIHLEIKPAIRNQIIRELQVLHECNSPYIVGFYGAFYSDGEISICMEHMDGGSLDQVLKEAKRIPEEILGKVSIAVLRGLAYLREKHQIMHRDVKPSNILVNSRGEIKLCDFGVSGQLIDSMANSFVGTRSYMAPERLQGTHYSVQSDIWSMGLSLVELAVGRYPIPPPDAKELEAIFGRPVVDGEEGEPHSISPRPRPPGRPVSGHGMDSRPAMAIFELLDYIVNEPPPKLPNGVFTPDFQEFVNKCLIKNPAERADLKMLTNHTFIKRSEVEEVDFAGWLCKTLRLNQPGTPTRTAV
Chain of Calcium/calmodulin-dependent protein kinase type II subunit beta (Q13554 whole entry): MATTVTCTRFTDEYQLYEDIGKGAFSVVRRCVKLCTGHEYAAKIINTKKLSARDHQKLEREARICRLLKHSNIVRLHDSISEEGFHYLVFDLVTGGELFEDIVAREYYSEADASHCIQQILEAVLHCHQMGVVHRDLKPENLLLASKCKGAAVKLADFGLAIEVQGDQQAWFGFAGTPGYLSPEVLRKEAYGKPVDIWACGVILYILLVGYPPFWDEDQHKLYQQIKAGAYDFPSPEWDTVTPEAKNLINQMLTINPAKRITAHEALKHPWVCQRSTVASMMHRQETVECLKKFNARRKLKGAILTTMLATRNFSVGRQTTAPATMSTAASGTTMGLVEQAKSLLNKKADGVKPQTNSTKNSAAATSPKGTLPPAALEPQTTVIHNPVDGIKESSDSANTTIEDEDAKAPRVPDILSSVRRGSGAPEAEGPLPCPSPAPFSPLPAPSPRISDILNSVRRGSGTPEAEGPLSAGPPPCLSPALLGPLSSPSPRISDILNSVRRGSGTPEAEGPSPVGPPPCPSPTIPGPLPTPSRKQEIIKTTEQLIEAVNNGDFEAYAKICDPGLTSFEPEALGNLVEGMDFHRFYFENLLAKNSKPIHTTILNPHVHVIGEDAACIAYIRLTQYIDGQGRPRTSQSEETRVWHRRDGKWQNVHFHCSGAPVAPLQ
Chain of Tyrosine-protein kinase Lyn (Homo sapiens) (P07948 2-512 limits assumed): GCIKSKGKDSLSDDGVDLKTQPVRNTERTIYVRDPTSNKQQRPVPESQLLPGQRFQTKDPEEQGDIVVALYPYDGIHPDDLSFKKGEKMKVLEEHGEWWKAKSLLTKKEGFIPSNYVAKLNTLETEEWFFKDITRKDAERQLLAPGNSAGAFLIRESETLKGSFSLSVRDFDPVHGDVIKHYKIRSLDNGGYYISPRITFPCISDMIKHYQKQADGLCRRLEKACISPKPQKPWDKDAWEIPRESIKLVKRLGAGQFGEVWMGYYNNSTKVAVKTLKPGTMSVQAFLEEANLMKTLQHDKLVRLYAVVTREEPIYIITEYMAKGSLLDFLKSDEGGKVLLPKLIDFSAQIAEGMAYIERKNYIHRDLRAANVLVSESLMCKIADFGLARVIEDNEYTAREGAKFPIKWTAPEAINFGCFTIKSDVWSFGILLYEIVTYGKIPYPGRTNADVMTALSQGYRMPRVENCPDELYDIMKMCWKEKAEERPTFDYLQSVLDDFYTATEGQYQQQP
Chain of Tyrosine-protein kinase Yes (Homo sapiens) (P07947 2-543 limits assumed): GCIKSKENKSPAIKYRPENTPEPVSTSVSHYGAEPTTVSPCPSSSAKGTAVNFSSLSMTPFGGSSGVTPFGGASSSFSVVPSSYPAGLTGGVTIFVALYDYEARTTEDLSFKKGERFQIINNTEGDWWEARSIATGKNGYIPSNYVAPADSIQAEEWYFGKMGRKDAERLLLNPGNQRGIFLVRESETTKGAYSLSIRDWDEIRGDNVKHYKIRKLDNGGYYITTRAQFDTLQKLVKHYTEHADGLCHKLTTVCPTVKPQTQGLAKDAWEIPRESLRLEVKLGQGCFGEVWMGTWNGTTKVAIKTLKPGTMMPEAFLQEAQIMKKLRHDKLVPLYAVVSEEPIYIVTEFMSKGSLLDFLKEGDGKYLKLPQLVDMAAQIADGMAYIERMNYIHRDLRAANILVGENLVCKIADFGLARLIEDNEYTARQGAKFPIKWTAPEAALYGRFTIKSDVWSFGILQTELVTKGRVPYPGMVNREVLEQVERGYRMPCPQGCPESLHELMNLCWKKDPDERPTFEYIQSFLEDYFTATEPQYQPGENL

For the compound `Cc1nc(Nc2ncc(C(=O)Nc3c(C)cccc3Cl)s2)cc(N2CCN(CCO)CC2)n1`, the inhibition entry in [1] and in [2] was “Active” in each case.
With `CCN1CCN(Cc2ccc(Nc3ncc(F)c(-c4cc(F)c5nc(C)n(C(C)C)c5c4)n3)nc2)CC1` [ABEMACICLIB], the IC50 in assay [3] was 2.6 nM; in assay [4], 52 nM; in [5], 3.5 nM.
With `CC(=O)c1c(C)c2cnc(Nc3ccc(N4CCNCC4)cn3)nc2n(C2CCCC2)c1=O` [PALBOCICLIB], the outcome in the assay with L-M(TK-) and with RKO was inactive. In addition, the IC50 in assay [5] was 1600 nM.
On to `CN(C)C(=O)c1cc2cnc(Nc3ccc(N4CCNCC4)cn3)nc2n1C1CCCC1`, for which the inhibition result in assay [6] is “Active”. Besides, the inhibition result in assay [7] was “inactive”.
For `CC(=O)Nc1cccc(-n2c(=O)n(C3CC3)c(=O)c3c(Nc4ccc(I)cc4F)n(C)c(=O)c(C)c32)c1`, the inhibition entry (in assay [8]; in [9]; in [10]; in the assay on Mus musculus [11]; in assay [15]; with Mus musculus [16]) was “Active” in each case. Besides, the inhibition entry in [17] and in assay [18] was “Active” each time. The inhibition result in [12], in [13] and in assay [14] was “inactive” each time.
